Measurements as given in article PMC6225474, “Polypyridyl Zinc(II)-Indomethacin Complexes with Potent Anti-Breast Cancer Stem Cell Activity” (Molecules : A Journal of Synthetic Chemistry and Natural …, 2018).
Where two headings read alike, the source gives them in different places.

Tests used:
[1] = system: HMLER cells; conditions: MTT, 72 h incubation; cited from earlier work
[2] = system: HMLER-shEcad cells; conditions: cited from earlier work; for IC50: MTT, 72 h incubation
[3] = system: HMLER-shEcad mammospheres; design: method as in PMID 26865551; conditions: previous work; cited from earlier work
[4] = system: HMLER-shEcad mammospheres; assay: Mammosphere formation assay (number and size of mammospheres); type: cell-based, human; conditions: HMLER-shEcad cells in suspension, treated at respective IC20 value for 5 days
Procedure: (§1) On day 1, 5000 HMLER-shEcad cells were seeded into each well of a 96-well ultralow-attachment plate. The culture media used was MEGM with B27 (Invitrogen), 20 ng/mL EGF, and 4 μg/mL heparin (Sigma). Compounds of interest were added to the HMLER-shEcad cells at various concentrations (0–133 μM), and the suspensions were incubated for 5 days. On day 6, the mammospheres were imaged and counted using a standard microscope. Afterwhich, TOX8 (Sigma) (20 µL) was added to each well and incubated for 16 h. On day 7, the solutions in each well were transferred to a black 96-well plate and the fluorescence was measured using a plate reader, 590 nm (λex = 560 nm). The arbitrary fluorescence values were normalised with respect to control wells (containing DMSO), and dose–response curves were plotted to determine the IC50 values. Three independent experiments were carried out, with each concentration having three repeats […].

[5] = system: HMLER-shEcad mammospheres; design: method as in PMID 26806362, PMID 27774561, PMID 28932846; conditions: 120 h incubation, read-out: Mammosphere IC50; cited from earlier work
[6] = system: HMLER cells; assay: MTT assay, bulk breast cancer cells (HMLER); type: cell-based, human; conditions: 72 h incubation
Procedure: (§2) HEK 293T human embryonic kidney cells purchased from American Type Culture Collection (ATCC, Manassas, VA, USA) were grown in DMEM (Dulbecco’s Modified Eagle’s Medium) with FBS (fetal bovine serum, 10%), and penicillin/streptomycin (1%). Human mammary epithelial CSC-depleted HMLER and human mammary epithelial CSC-enriched HMLER-shEcad cells were obtained from Prof. R.A. Weinberg (Whitehead Institute, MIT). These cells were grown in MEGM (Mammary Epithelial Cell Growth Medium) with BPE, hydrocortisone, hEGF, insulin, and gentamicin/amphotericin-B. All of the cells used in this study were cultured at 37 °C within a humidified incubator with a CO2 controller to maintin CO2 levels at 5%.
(§3) On day 1, 5000 cells (of the appropriate cell line) were plated in each well of a 96-well plate. The cells were then left to attach to the bottom of the wells overnight. On day 2, the compounds of interest were added (at different concentrations, 0.2–100 μM). The cells were incubated with the compounds for 72 h. The volume of each well at this stage was 200 μL. If DMSO was used to aid solubilization of the compounds, then the same amount of DMSO was also present in control wells. […] The absorption of each well was measured using a plate reader at 550 nm. […]

[7] = system: HMLER-shEcad cells; assay: MTT assay, breast CSC-like cells (HMLER-shEcad); type: cell-based, human; conditions: 72 h incubation
Procedure: as §2, §3

[8] = system: HEK 293T cells; assay: MTT assay, human embryonic kidney (HEK 293T) cells; type: cell-based; conditions: for IC50: MTT, 72 h incubation
Procedure: as §2
On day 1, 5000 cells (of the appropriate cell line) were plated in each well of a 96-well plate. The cells were then left to attach to the bottom of the wells overnight. On day 2, the compounds of interest were added (at different concentrations, 0.2–100 μM). The cells were incubated with the compounds for 72 h. The volume of each well at this stage was 200 μL. If DMSO was used to aid solubilization of the compounds, then the same amount of DMSO was also present in control wells. On day 5, a solution of 3-(4,5-dimethylthiazol-2-yl)-2,5-diphenyltetrazolium bromide (MTT) (4 mg/mL) predissolved in PBS was added to each well of the 96-well plate (20 μL). After a further 4 h incubation, the media/MTT solution was removed and the resultant purple formazan crystals were dissolved in DMSO (200 μL). The absorption of each well was measured using a plate reader at 550 nm. The absorption values were normalised according to the control wells and dose—response curves were plotted to determine the IC50 values. Three independent experiments were carried out, with each concentration having six repeats (n = 18).

[9] = system: HMLER-shEcad mammospheres; assay: Mammosphere viability assay (TOX8); type: cell-based, human; conditions: TOX8, 5 days (120 h) incubation
Procedure: as §1

[10] = LogP by shake-flask method with UV-Vis spectroscopy; type: physicochemical; conditions: octanol/water, 100 µM, shaken 24 h, room temperature
Procedure: The shake-flask method in combination with UV-Vis spectroscopy was used to determine the LogP values of 2–5. Briefly, to a suspension of water (500 μL) and octanol (500 μL), 2–5 was added, giving a final concentration of 100 µM. The mixture was shaken for 24 h (room temperature). Using centrifugation, the water and octanol layers were separated and the concentration of 2–5 in each layer was determined using UV-Vis spectroscopy.

[11] = UV-Vis stability study in PBS:DMSO; type: physicochemical; conditions: 50 µM in PBS:DMSO (200:1), 24 h at 37 °C
Text: The shake-flask method was used to determine the lipophilicity (LogP) of 2–5. This involves determining the amount of a given compound partitioned between octanol and water using UV-Vis spectroscopy. […] The size of the polypyridyl ligand has a clear effect on lipophilicity, with LogP values increasing according to the following order; 2 < 3 < 4 < 5. The hydrophobicity of 2–5 implies that the zinc(II) complexes are likely to easily enter cells. […] The metal-perturbed π-π* and metal-to-ligand charge-transfer (MLCT) absorption bands of 2 (50 µM) in PBS:DMSO (200:1) were constant for 24 h at 37 °C (Figure S7), indicative of stability.

[12] = UV-Vis stability study in MEGM/DMSO; type: physicochemical; conditions: 50 µM in MEGM/DMSO (200:1), 24 h at 37 °C

Molecule	IC50 [1] [µM]	IC50 [2] [µM]	IC50 [6] [µM]	IC50 [7] [µM]	IC50 [8] [µM]	IC50 [9] [µM]	LogP [10]	further results
N.N.O=C([O-])C1(C(=O)[O-])CCC1.[Pt+2] [carboplatin]	67.3 ± 2.8	72.3 ± 7.9						
N.N.[Cl][Pt][Cl] [cisplatin]	3.4 ± 0.5	4.9 ± 0.4						
COc1ccc2c(c1)c(CC(=O)O)c(C)n2C(=O)c1ccc(Cl)cc1 [indomethacin]								toxicity towards CSC-like cells ([2]; previous work): non-toxic; mammosphere inhibitory effect [3]: poor
CC[C@@H](C(=O)[C@@H](C)[C@@H](O)[C@H](C)[C@@H]1O[C@@H]([C@@H](CC)C(=O)O)CC[C@@H]1C)[C@H]1O[C@]2(C=C[C@@H](O)[C@]3(CC[C@@](C)([C@H]4CC[C@](O)(CC)[C@H](C)O4)O3)O2)[C@H](C)C[C@@H]1C [salinomycin]	11.4 ± 0.4	4.2 ± 0.3						decrease in mammospheres formed [4]: 37%; IC50 [5]: 18.5 ± 1.5 µM
Zn(indomethacin)2(1,10-phenanthroline) [Compound 3]			1.1 ± 0.05	1.1 ± 0.08	2.3 ± 0.1	44.1 ± 0.6	0.97	
Zn(indomethacin)2(2,2′-bipyridine) [Compound 2]			1.2 ± 0.02	0.7 ± 0.04	20 ± 3.9	> 133	0.89	fold less potent toward HEK 293T cells than HMLER and HMLER-shEcad cells ([8]; ratio of IC50 values, p < 0.05): up to 17 fold; stability: metal-perturbed π-π* and MLCT absorption bands [11]: constant; stability: UV-Vis absorption bands [12]: unaltered
